In US8114638B2, “Arabinitol dehydrogenase from Neurospora crassa” (The Board of Trustees of the University of Illinois, priority 2007, dated 2012):
Where two headings read alike, the source gives them in different places. Marks after values point to notes of the source that are not given here.

Tests used:
[1] = biological target: T1, N. crassa LAD (Neurospora crassa, UniProt Q7SI09); details: for % Activity: relative to L-arabinitol = 100, 50 mM Tris pH 8.0, saturated NAD+
Method: (§1) Initial rates were determined using a Varian Cary 100 Bio UV-visible spectrophotometer (Varian) at 25° C. in 50 mM Tris (pH 8.0). […] Kinetic measurements with substrate L-arabinitol and cofactor NAD^+ were taken in a 5-by-5 matrix format, with substrate and cofactor concentrations varied from below their Km to 10-fold higher than their Km. The kinetic data were analyzed with a modified version of Cleland's program (Cleland, W. W. (1979) Statistical analysis of enzyme kinetic data, Methods Enzymol 63, 103-138.). Vmax and Km for both L-arabinitol and NAD^+ were obtained by fitting the data to a sequential ordered mechanism with NAD^+ binding first, based on the proposed mechanism for sorbitol dehydrogenase (Lindstad et al. (1992) The kinetic mechanism of sheep liver sorbitol dehydrogenase, Eur J Biochem 210, 641-647.) v=VmaxAB/(KiaKB+KAB+KBA+AB) (EQ. 1)
where v is the initial velocity, Vmax is the maximum velocity, KA and KB are the Michaelis-Menten constants for NAD+ and L-arabinitol, respectively, A and B are the concentrations of NAD+ and L-arabinitol, respectively, and Kia is the dissociation constant for NAD+.
Kinetics. The data were used to calculate the kinetic constants for various substrates by fitting the Michaelis-Menten equation using Origin 5.0. […] The data represent averages of assays performed in duplicate or triplicate on two separate occasions.

[2] = biological target: T1, N. crassa LAD; test: Cofactor specificity of N. crassa LAD by HPLC; assay type: biochemical; parameters: GST (glutathione S-transferase), with thrombin cleavage site (N, cleaved yes); made in house; host or cells: Escherichia coli BL21(DE3), vector pGEX-4T-3 (pGEX-lad1); details: 1 mM NAD(P)+, 25 mM L-arabinitol, 50 mM Tris pH 8.0, 20 min at 37° C., UV 340 nm
Method: The cofactor specificity of N. crassa LAD was examined by HPLC. The separation of NAD+, NADP+, NADH, and NADPH was carried out using standard methods. No discernible cross-contamination of oxidized cofactors was observed. 20 μL reaction mixtures consisting of equal parts of 1 mM NAD(P)+ and 25 mM L-arabinitol in 50 mM Tris (pH 8.0) were set up, and following addition of approximately 1 μg of enzyme, the reaction was allowed to proceed for 20 min at 37° C. […] This indicated the strong preference for NAD+ as the cofactor of N. crassa LAD.
HPLC analysis. The enzyme (1 μg) was incubated in a mixture of buffer and 25 mM L-arabinitol with 1 mM NAD(P)+ at 37° C. for 20 min. The sample was eluted on a Zorbax 3.0×150 mm C-18 (3.5 μm) column with a UV detector (Agilent 1100 series). The eluent consisted of two components: 0.1 M KH2PO4 containing 5 mM tetrabutylammonium hydrogen sulfate (pH 5.5) (buffer A) and 100% methanol (buffer B). The most suitable gradient was an initial isocratic step for 6 min at 93% buffer A, a gradient for 5 min from 7 to 30% buffer B, and a final isocratic step for 5 min at 30% buffer B.

[3] = Kinetic parameters of LAD from various source organisms; assay type: biochemical; details: greater
Method: as §1

[4] = LADs of other organisms, from references, cited from earlier work
[5] = 4° C. and freeze-thawing; cited from earlier work
[6] = with indicated substrate, 25° C., 50 mM Tris pH 8.0, saturated NAD+ (2 mM)

OC[C@@H](O)[C@@H](O)[C@@H](O)CO [Adonitol, adonitol]
Km ([1]; read-out: Km (mean ± SD), with indicated substrate, 25° C., 50 mM Tris pH 8.0, saturated NAD+ (2 mM)): 35 ± 3 mM | % Activity ([1]; 25° C.): 46% | kcat (mean ± SD) [1, 6]: 1,080 ± 30 min^−1

OC[C@@H](O)C(O)[C@H](O)CO [D-Arabinitol, D-arabinitol]
activity as substrate or cofactor of N. crassa LAD (in words) [1]: No activity was observed | % Activity ([1]; 25° C.): 0%

OC[C@@H](O)[C@@H](O)[C@H](O)[C@H](O)CO [D-Mannitol, D-mannitol]
activity as substrate or cofactor of N. crassa LAD (in words) [1]: No activity was observed | % Activity ([1]; 25° C.): 0%

OC[C@@H](O)[C@@H](O)[C@H](O)[C@@H](O)CO [D-Sorbitol, D-sorbitol]
activity as substrate or cofactor of N. crassa LAD (in words) [1]: No activity was observed | % Activity ([1]; 25° C.): 0^c %

OC[C@H](O)C(O)[C@@H](O)CO [L-Arabinitol, L-arabinitol]
Km ([1]; read-out: Km value for substrate): 16 mM | % Activity ([1]; 25° C.): 100%

NC(=O)c1ccc[n+]([C@@H]2O[C@H](COP(=O)([O-])OP(=O)(O)OC[C@H]3O[C@@H](n4cnc5c(N)ncnc54)[C@H](O)[C@@H]3O)[C@@H](O)[C@H]2O)c1 [NAD, NAD+]
Km ([1]; read-out: Km for L-arabinitol (mean ± SD), with indicated coenzyme, 25° C., 50 mM Tris pH 8.0): 16 ± 3 mM | Km ([1]; read-out: Km for NAD(P) (mean ± SD), 25° C., 50 mM Tris pH 8.0, substrate L-arabinitol): 0.174 mM | kcat (mean ± SD) ([1]; with indicated coenzyme, 25° C., 50 mM Tris pH 8.0, substrate L-arabinitol): 1,206 ± 54 min^−1 | reduced cofactor peak by HPLC (in words) [2]: a single peak (UV 340 nm) was observed that had the same retention time as authentic NADH

NC(=O)c1ccc[n+]([C@@H]2O[C@H](COP(=O)([O-])OP(=O)(O)OC[C@H]3O[C@@H](n4cnc5c(N)ncnc54)[C@H](OP(=O)(O)O)[C@@H]3O)[C@@H](O)[C@H]2O)c1 [NADP, NADP+]
activity as substrate or cofactor of N. crassa LAD (in words) ([1]; listed as NADP+): small yet detectable activity | activity as substrate or cofactor of N. crassa LAD (in words) ([1]; listed as NADP^+): very low yet detectable activity | reduced cofactor peak by HPLC (in words) [2]: a small yet detectable peak was observed with a retention time corresponding to an authentic sample of NADPH

OC[C@@H](O)[C@H](O)[C@@H](O)CO [Xylitol, xylitol]
% Activity ([1]; 25° C.): 4.9% | kcat (mean ± SD) [1, 6]: 970 ± 40 min⁻¹

A. niger: L-arabinitol 4-dehydrogenase from Aspergillus niger (literature)
specific activity relative to N. crassa LAD [3]: about 3 fold | Specific activity [4]: 96 U/mg | Km ([4]; read-out: Km,L-arabinitol): 89 mM | Km ([4]; read-out: Km,NAD+): 0.05 mM | stability of purified enzyme as reported (in words) [5]: highly unstable, with rapidly diminishing activity at 4° C., and complete loss of activity after freeze-thawing of the enzyme

A. oryzae: L-arabinitol 4-dehydrogenase from Aspergillus oryzae (literature)
Specific activity [4]: 0.04 U/mg

H. jecorina: L-arabinitol 4-dehydrogenase from Hypocrea jecorina (literature; two table lines from different references)
kcat [4]: 0.85 s⁻¹ | Km ([4]; read-out: Km,NAD+): 0.18 mM
